The values below come from a melting point compilation (Tetko et al.; mined from patent text by program, amines drawn as free bases though some values may be those of a salt).

Each structure is given as a SMILES string.

Regarding `CC(=O)NCc1ccc(CN2CCN(c3ccc(NC(C)=O)cc3)CC2)cc1`, the melting point (in general, the temperature of the solid-liquid transition) lay in the range of 225 to 226 °C.
Next, `O=C(NCCOc1ccc(-c2ccccc2)cc1)N[C@@H](Cc1ccccc1)C(=O)O`: 175 °C.
As for `CCc1ccccc1CC1CNC(=O)O1` (configuration not stated), the melting point was 104 to 105 °C.
Next, `CCC(CO)Nc1nc(NCc2cccc(OC)c2O)c2ncn(C(C)C)c2n1` (racemic): 120 to 122 °C; `CN1CC(CCN2CCN(c3ccccc3Cl)CC2)OC1=O` (configuration not stated): 79.5 to 81.5 °C.
`Cc1ccc(C(C)(C)C)c(SC2=C(O)CC(CCc3ccccc3)(CCC(C)C)OC2=O)c1` (configuration not stated) gave a melting point of 46 to 50 °C.
For `O=C(CCCO)c1cccnc1` the value was 36 to 37 °C.
Next, `O=C(CN1C(=O)C2(COc3cc4c(cc32)CCO4)c2ccccc21)Nc1ccccc1F` (configuration not stated): 210 to 212 °C; `N=C(N)c1ccc(C(=O)N[C@@H](CO)Cc2ccc(OCC(=O)O)cc2)cc1`: 238 to 240 °C; `CCCCCCCCCCCCCCOc1ccc(C(=O)N(Cc2ccccn2)C(C)=O)cc1`: 68 to 70 °C.
For `COc1c(F)c(F)c(C(=O)C=C2OC(=O)c3ccccc32)c(F)c1F` the value was 199 to 200 °C; for `CN(C)c1ccc(-c2nc(C#N)c(C#N)nc2C#N)cc1`, 198 to 200 °C; for `Cc1cc(O)cc(C)c1NC=O`, 239 °C.
`Nc1c(SSc2c(-c3ncon3)nn(-c3c(Cl)cc(C(F)(F)F)cc3Cl)c2N)c(-c2ncon2)nn1-c1c(Cl)cc(C(F)(F)F)cc1Cl` gave a melting point of 226 to 228 °C.
Consider `CN1CCC(C2c3ccccc3CCc3cccnc32)CC1` (configuration not stated), for which the melting point is 111 to 114 °C.
Next, `CNC(=O)C1CCNC(c2ccnc3ccccc23)C1` (configuration not stated): 250 to 254 °C; `CN1C[C@@H]2c3ccccc3Oc3ccc(Cl)cc3[C@H]2C1=O` (relative stereo): 151 °C.
Next, `CCCCCCC(=O)Nc1ccc(-n2nc(C(F)(F)F)cc2C(F)(F)F)cc1`: 88 to 90 °C.
`CC1(C)Oc2ccccc2-n2cccc21` showed a melting point of 38 °C.
For `Cc1sc2c(c1Br)C(=O)N(CCCCCl)CCC2` the value was 78 to 80 °C.
`CC(=O)COc1ccc2ccc(=O)oc2c1` came in with a melting point of 168 to 170 °C.
For `CNCc1cc(Oc2ccc3c(C(=O)Nc4cccc(C(F)(F)F)c4)cccc3c2)ncn1`, the melting point lay in the range of 141 to 143 °C.
Next, `Cn1ncc2c(=S)n3c(nc21)SCC3`: 199 to 200 °C; `CCCCCS(=O)(=O)NC(=O)/C=C/c1ccc(OCCC2OCCO2)cc1Oc1ncc(C(F)(F)F)cc1Cl`: 116 to 118 °C.
For `Cc1nc(C)c(CO)c(C)n1` the value was 68 °C; for `COc1ccc(CNc2ccncc2)c2c1OCC2C` (configuration not stated), 138 to 145 °C.
Next, `COc1ccccc1C1CC(=O)Oc2ccc(Cl)cc21` (configuration not stated): 172 to 173 °C.
`CCn1c(NC)nc(=O)c2ccccc21`: the melting point fell in the range of 262 to 264 °C.
Next, `NS(=O)(=O)c1ccc(-c2cc(F)c(F)cc2-c2ccc3c(c2)OCO3)cc1`: 142 to 143 °C.
For the compound `OCc1c(C(F)(F)F)n(Cc2ccccc2)c2ccccc12`, the melting point amounted to 96 °C.
The compound `Cn1ncc2c3[nH]n(-c4ccc(S(N)(=O)=O)cc4)c(=O)c3c(-c3cccc(C(F)(F)F)c3)nc21` showed a melting point of 272 to 274 °C.
On to `CN(C)c1ncc(Br)cn1`, for which the melting point lay in the range of 81 to 82 °C.
`O=C(O)CC1CCC(CCNS(=O)(=O)c2ccc(Br)cc2)CC1` (configuration not stated): the melting point was 124 to 126 °C.
Take `CC(C)(C)N(NC(=O)c1ccccc1)C(=O)C1CCCCC1`: the melting point is 202 to 204 °C.
For `CC(C)C1(CO)Cc2cc(OCC(=O)O)c(Cl)c(Cl)c2C1=O` (configuration not stated) the value was 200 to 202 °C; for `O=c1[nH]c2cc([N+](=O)[O-])ccc2c(=O)n1CCCN1CC=C(c2ccc(Cl)cc2)CC1`, 210 to 212 °C.
Next, `O=C(NCC12CC3CC(CC(C3)C1)C2)c1cc(I)cnc1Cl`: 163 to 164 °C.
On to `CCN1C(=O)C(C)(C)C(=O)N(C)c2cc(CN(C)Cc3ccccc3CN3C(=O)CCc4ccccc43)ccc21`, for which the melting point fell in the range of 125 to 127 °C.
For `CC(C)(OCc1nn(Cc2ccccc2)c2ccccc12)C(=O)NNc1ccccc1` the value was 124 to 125 °C; for `CSCC(=O)[C@H](CC1CCCCC1)NC(=O)[C@H](CC(C)C)NC(=O)OCc1ccccc1`, 83 to 84 °C; for `COc1ccc(N2C(=O)C3=C(SCCS3)C2OC(=O)N2CCN(C)CC2)nn1` (configuration not stated), 196 to 198 °C.
For `COC(=O)CCC#Cc1cc(Cl)ccc1[N+](=O)[O-]` the value was 75 to 78 °C.
In the case of `CC(C)N(C(=O)c1cc2ccccc2c(-c2ccccc2Cl)n1)C(C)C`, the melting point is 161 °C.
Next, `CCCCCCCCCCOC(=O)C1=C(C)OC(N)=C(C(=O)OCC)C1c1cccc([N+](=O)[O-])c1` (configuration not stated): 100 °C.
For `Cn1c(=O)c(=O)[nH]c2cc([N+](=O)[O-])c([N+](=O)[O-])cc21` the value was 370 to 380 °C.
As to `O=S(=O)(c1ccc(Cl)cc1)N1c2ccccc2CCC1c1ccc(CN2CCSCC2)cc1` (configuration not stated), the melting point is 134 to 136 °C.
On to `CC(C)c1cc(C=C2Sc3ccccc3N(Cc3nnn[nH]3)C2=O)cc(C(C)C)c1O`, for which the melting point fell in the range of 189 to 190 °C.
As to `Cc1c[nH]c2c(CCC#N)cccc12`, the melting point lay within 146 to 148 °C.
Compound `O=[N+]([O-])c1ccccc1OC1OC(COP(=O)(O)O)C(O)C(O)C1O` (configuration not stated) gave a melting point of 181 to 183 °C.
The compound `CCO[C@@H]1[C@@H](OC)[C@H](C)O[C@@H](OC(=O)N(C(=O)CCC(=O)OC)c2ccc(-c3ncn(-c4ccc(OC(F)(F)C(F)(F)F)cc4)n3)cc2)[C@@H]1OC` displayed a melting point of 72 to 76 °C.
Compound `CCN(CC)CC(C)N1c2ccccc2Sc2ccc(C#N)cc21` (configuration not stated) gave a melting point of 83 °C.
`CCCc1nn(C)c2c(=O)n(CCCNc3ccc(OC(C)(C)C(=O)O)cc3)c(CC)nc12` returned a melting point of 124 to 126 °C.
Consider `Oc1ccc(Oc2ccc(OC(F)(F)F)cc2)cc1`, for which the melting point lay in the range of 44 to 46 °C.
`CCCCCCCCc1ccc(N(c2ccc(CCCCCCCC)cc2)C2(c3ccc(N(C)C)cc3)OC(=O)c3cc(N(C)C)ccc32)cc1` (configuration not stated) registered a melting point of 208 to 210 °C.
For `O=C(N[C@H](Cc1ccc(C(F)(F)F)cc1)[C@@H](O)c1cccc2ccccc12)c1ccc(F)c2ccccc12` (racemic) the value was 195 to 196 °C; for `Cn1cc(S(C)=O)c(=O)c2scc(-c3ccccc3)c21` (configuration not stated), 206 to 209 °C; for `O=C(O)c1ccc(C(=O)Nc2ccc(C(=O)N3CCCc4ccccc43)cc2)cc1`, above 300 °C.
Next, `CC(C)c1ccc2c(c1)c(Sc1ccccc1)c(CCC(=O)O)n2Cc1ccc(Cl)cc1`: 149 to 150 °C.
For the compound `ClCCCOc1ccc(OCCCCl)c(Cl)c1`, the melting point worked out at 135 °C.
In the case of `Nc1nc2c(sc(=O)n2C2OC(COC(=O)c3ccccc3)C(OC(=O)c3ccccc3)C2OC(=O)c2ccccc2)c(=O)[nH]1` (configuration not stated), the melting point lay within 248 to 250 °C.
Next, `COc1ccc2cc(C#CC(C)(C)O)ccc2c1`: 118 to 119 °C; `NC(=O)N1CCC(c2nn(-c3ccccc3)c3cc(Cl)ccc23)CC1`: 148 to 150 °C.
Next, `Cc1ccc(S(=O)(=O)ON=C2CCOc3cc(Cl)c(Cl)cc32)cc1`: 180 to 184 °C; `CCCCC1C2CCCC(C2=O)C2(O)CCCCC12` (configuration not stated): 140 to 141 °C.
For `Cn1c(=O)oc2c(O)cccc21` the value was 209 to 211 °C; for `COc1ccc(COCc2nc(C(C)C)c(Sc3cc(Cl)cc(Cl)c3)n2CC(C)=O)cc1`, 87 to 90 °C.
In turn, `N#CCCn1c(=N)sc2cc(OC(F)(F)F)ccc21` yielded a melting point of 180 °C.
For `CC(C)(C)OC(=O)NC1CN(C(C(=O)OC(c2ccccc2)c2ccccc2)c2ccc(OC(=O)OC(C)(C)C)cc2)C1=O` (configuration not stated) the value was 155 to 157 °C; for `Cn1nccc1-c1ccc2c(ccn2-c2ccc(F)cc2)c1`, 135 to 137 °C; for `CC(C)(C)c1cc(NC(=O)Nc2ccc(Cl)c(Cl)c2)[nH]n1`, 178 to 179 °C.
Next, `CCOC(=O)c1oc(-c2ccc(C)cc2)cc(=O)c1Br`: 144 °C.
For `CC(=O)CC(=O)c1ccccn1` the value was 46 to 49 °C; for `COC(=O)C[C@H]1[C@@H](C(C)=O)C(=O)N1C(c1ccccc1)(c1ccccc1)c1ccccc1`, 52 to 54 °C; for `CC(=O)NCc1ccc(CN2CCN(c3ccc(F)cc3)CC2)cc1[N+](=O)[O-]`, 112 to 114 °C.
Consider `Cn1nnnc1C(F)(F)C(O)(Cn1cncn1)c1ccc(F)cc1F` (configuration not stated), for which the melting point was 160 to 165 °C.
Next, `CCc1c(C)[nH]c(=O)c(N)c1Cc1cc(C)cc(C)c1`: 204 to 205 °C.
Regarding `O=C1C(=Cc2cccs2)CCc2cc(OCCc3c[nH]cn3)ccc21`, the melting point is 60 to 63 °C.
For `CC(C)C(NC(=O)OC(C)(C)C)C(=O)OC1CC(n2cc(C=CBr)c(=O)[nH]c2=O)OC1CCl` (configuration not stated) the value was 87 to 88 °C; for `Clc1ccc2nc(-c3ccccc3)cc(Cl)c2c1`, 114 to 116 °C; for `O=C1OC(=O)[C@H](Cc2ccccc2)C[C@H]1Cc1ccccc1`, 172 to 174 °C.
As to `CSc1c(S)c(SC)c(SC)c(SC)c1SC`, the melting point worked out at 60 °C.
Next, `CCC1(C)SC(N(C)C(=O)NC)=NN1C(=O)C(C)(C)C` (configuration not stated): 124 to 127 °C; `COC(=O)c1ccnc(N2CCN(Cc3ccncc3)C2=O)c1`: 111 to 113 °C; `CN(Cc1cc2c3c(c1)c(=O)c(C(=O)NCc1ccc(Cl)cc1)cn3CC(=O)N2C)C[C@@H](O)c1ccco1`: 119 to 120 °C.
Next, `CCOC(=O)CCN1CCN(C2=Nc3ccccc3Oc3ccc(Cl)cc32)CC1`: 73 to 75 °C; `CC(C)NC(=O)c1cnc(N2CCC(N3C(=O)COc4ccccc43)CC2)c(Cl)c1`: 85 to 88 °C; `COc1cccc2c1CC(N(CCCc1c[nH]c3ccc(F)cc13)C1CC1)CO2` (configuration not stated): 115 °C.
